Data reported in patent US7560450B2, “Xanthine derivatives, the preparation thereof and their use as pharmaceutical compositions” (Boehringer Ingelheim Pharma GmbH & Co., KG, priority 2002, dated 2009).

system: rats; assay: Tolerability after oral administration to rats (behaviour); type: in vivo; conditions: 10 mg/kg

| SMILES | changes in the animals' behaviour |
| --- | --- |
| CC#CCn1c(N2CCC[C@@H](N)C2)nc2c1c(=O)n(CC(=O)Nc1ccccn1)c(=O)n2C [Example 1(3), 1-{[(pyridin-2-yl)aminocarbonyl]methyl}-3-methyl-7-(2-butyn-1-yl)-8-[(R)-3-amino-piperidin-1-yl]-xanthine] | no changes in the animals' behaviour could be detected |

biological target: T1, DPP-IV (Homo sapiens, UniProt P27487); assay: DPP-IV assay with Caco-2 cell extract as DPP IV source; type: biochemical; conditions: extract of human colon carcinoma cell line Caco-2 as DPP IV source; substrate AFC 100 μM; 60 minutes at ambient temperature; 11 measuring points; read-out: DPP IV inhibition IC50
T1 construct: an extract of human colon carcinoma cell line Caco-2 is used as the DPP IV source; endogenous in cells; host or cells: Caco-2 (human colon carcinoma), differentiated to induce DPP-IV expression; Nonidet-P40 solubilised extract
T1 sequence (P27487 whole entry): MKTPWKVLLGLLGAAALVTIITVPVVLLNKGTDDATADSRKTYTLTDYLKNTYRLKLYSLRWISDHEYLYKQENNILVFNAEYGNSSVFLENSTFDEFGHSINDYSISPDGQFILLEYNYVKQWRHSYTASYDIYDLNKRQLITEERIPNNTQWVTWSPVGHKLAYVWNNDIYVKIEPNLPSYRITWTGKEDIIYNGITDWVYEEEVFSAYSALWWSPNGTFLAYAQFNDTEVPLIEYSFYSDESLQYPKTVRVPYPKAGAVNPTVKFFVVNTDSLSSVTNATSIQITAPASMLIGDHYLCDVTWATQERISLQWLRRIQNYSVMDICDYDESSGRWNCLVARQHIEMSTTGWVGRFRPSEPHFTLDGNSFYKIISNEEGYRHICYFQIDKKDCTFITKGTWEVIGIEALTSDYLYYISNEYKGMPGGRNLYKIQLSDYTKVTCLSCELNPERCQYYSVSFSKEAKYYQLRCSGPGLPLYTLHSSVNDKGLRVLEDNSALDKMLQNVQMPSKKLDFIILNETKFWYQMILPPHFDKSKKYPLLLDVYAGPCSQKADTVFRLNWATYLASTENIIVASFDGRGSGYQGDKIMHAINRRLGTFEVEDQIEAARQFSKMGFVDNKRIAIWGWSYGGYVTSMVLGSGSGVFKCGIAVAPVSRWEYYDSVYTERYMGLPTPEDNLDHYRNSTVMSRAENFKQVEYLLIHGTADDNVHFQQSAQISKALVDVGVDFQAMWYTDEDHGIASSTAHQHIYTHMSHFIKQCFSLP
Experimental: The differentiation of the cells in order to induce the DPP-IV expression was carried out as described by Reiher et al. in an article entitled “Increased expression of intestinal cell line Caco-2”, which appeared in Proc. Natl. Acad. Sci. Vol. 90, pages 5757-5761 (1993). The cell extract was obtained from cells solubilised in a buffer (10 mM Tris HCl, 0.15 M NaCl, 0.04 t.i.u. aprotinin, 0.5% Nonidet-P40, pH 8.0) by centrifuging at 35,000 g for 30 minutes at 4° C. (to remove cell debris).
The DPP-IV assay was carried out as follows:
50 μl substrate solution (AFC; AFC is amido-4-trifluoromethylcoumarin), final concentration 100 μM, were placed in black microtitre plates. 20 μl of assay buffer (final concentrations 50 mM Tris HCl pH 7.8, 50 mM NaCl, 1% DMSO) was pipetted in. The reaction was started by adding 30 μl of solubilised Caco-2 protein (final concentration 0.14 μg of protein per well). The test substances to be investigated were typically added prediluted in 20 μl, and the volume of assay buffer was then reduced accordingly. The reaction was carried out at ambient temperature, incubating for 60 minutes. Then the fluorescence was measured in a Victor 1420 Multilabel Counter, the excitation wavelength being 405 nm and the emission wavelength being 535 nm. Blank readings (corresponding to 0% activity) were obtained in mixtures without any Caco-2 protein (volume replaced by assay buffer), control values (corresponding to 100% activity) were obtained in mixtures with no substance added. The potency of the test substances in question, expressed as IC50 values, was calculated from dosage/activity curves consisting of 11 measuring points in each case.

| SMILES | IC50 [nM] |
| --- | --- |
| CC#CCn1c(N2CCC[C@@H](N)C2)nc2c1c(=O)n(CC(=O)OCc1cccnc1)c(=O)n2C [1(4), 1-{[(pyridin-3-yl)methoxycarbonyl]methyl}-3-methyl-7-(2-butyn-1-yl)-8-[(R)-3-amino-piperidin-1-yl]-xanthine] | 13 |
| CC#CCn1c(N2CCC[C@@H](N)C2)nc2c1c(=O)n(CC(=O)Nc1cccnc1)c(=O)n2C [1(5), 1-{[(pyridin-3-yl)aminocarbonyl]methyl}-3-methyl-7-(2-butyn-1-yl)-8-[(R)-3-amino-piperidin-1-yl]-xanthine] | 7 |
| CC#CCn1c(N2CCC[C@@H](N)C2)nc2c1c(=O)n(CC(=O)Nc1ccccc1[N+](=O)[O-])c(=O)n2C [1(7), 1-{[(2-nitro-phenyl)aminocarbonyl]methyl}-3-methyl-7-(2-butyn-1-yl)-8-[(R)-3-amino-piperidin-1-yl]-xanthine] | 4 |
| CC#CCn1c(N2CCCC(N)C2)nc2c1c(=O)n(CC(=O)Nc1ccc(C#N)cc1)c(=O)n2C (stereo not shown) [1(8), 1-{[(4-cyano-phenyl)aminocarbonyl]methyl}-3-methyl-7-(2-butyn-1-yl)-8-(3-amino-piperidin-1-yl)-xanthine] | 42 |
| CC#CCn1c(N2CCC[C@@H](N)C2)nc2c1c(=O)n(CC(=O)Nc1ccccc1OC)c(=O)n2C [1(9), 1-{[(2-methoxy-phenyl)aminocarbonyl]methyl}-3-methyl-7-(2-butyn-1-yl)-8-[(R)-3-amino-piperidin-1-yl]-xanthine] | 32 |
| CC#CCn1c(N2CCCC(N)C2)nc2c1c(=O)n(CC(=O)NCc1ccccc1N)c(=O)n2C (stereo not shown) [1(11), 1-[(2-amino-benzylaminocarbonyl)methyl]-3-methyl-7-(2-butyn-1-yl)-8-(3-amino-piperidin-1-yl)-xanthine] | 28 |

The remaining lines, values ahead:

| IC50 [nM] | SMILES |
| --- | --- |
| 46 | CC#CCn1c(N2CCC[C@@H](N)C2)nc2c1c(=O)n(CC(=O)NCc1ccccc1)c(=O)n2C [1(1), 1-[(benzylaminocarbonyl)methyl]-3-methyl-7-(2-butyn-1-yl)-8-[(R)-3-amino-piperidin-1-yl]-xanthine] |
| 26 | CC#CCn1c(N2CCC[C@@H](N)C2)nc2c1c(=O)n(CC(=O)Nc1ccccc1)c(=O)n2C [1(2), 1-[(phenylaminocarbonyl)methyl]-3-methyl-7-(2-butyn-1-yl)-8-[(R)-3-amino-piperidin-1-yl]-xanthine] |
| 722 | CC#CCn1c(N2CCC[C@@H](N)C2)nc2c1c(=O)n(CC(=O)Nc1ccccc1C)c(=O)n2C [1(6), 1-{[(2-methyl-phenyl)aminocarbonyl]methyl}-3-methyl-7-(2-butyn-1-yl)-8-[(R)-3-amino-piperidin-1-yl]-xanthine] |
| 286 | CC#CCn1c(N2CCCC(N)C2)nc2c1c(=O)n(CC(=O)COc1ccccc1)c(=O)n2C (stereo not shown) [1(10), 1-(2-oxo-3-phenoxy-propyl)-3-methyl-7-(2-butyn-1-yl)-8-(3-amino-piperidin-1-yl)-xanthine] |
| 4 | CC#CCn1c(N2CCC[C@@H](N)C2)nc2c1c(=O)n(CC(=O)Nc1ccccn1)c(=O)n2C [Example 1(3), 1-{[(pyridin-2-yl)aminocarbonyl]methyl}-3-methyl-7-(2-butyn-1-yl)-8-[(R)-3-amino-piperidin-1-yl]-xanthine] |
| 27 | CC#CCn1c(N2CCC[C@@H](N)C2)nc2c1c(=O)n(CC(=O)OCc1ccccc1)c(=O)n2C [Example 1, 1-[(benzyloxycarbonyl)methyl]-3-methyl-7-(2-butyn-1-yl)-8-[(R)-3-amino-piperidin-1-yl]-xanthine] |
